Reference: PubChem BioAssay AID248 (DTP/NCI, 2004)
“And” between values parts separate entries of the source, which are not always exact repeats. Equal entries are not always repeated. Toxic doses and inconclusive results are not listed. Rule as the data show it: active = T/C of 150% or more; inactive = T/C below 125%.

System: L1210 leukemia ip in BDF1 mice, survival T/C
Assay: NCI In Vivo Anticancer Drug Screen. Data for tumor model L1210 Leukemia (intraperitoneal) in B6D2F1 (BDF1) mice
Details: endpoint: mean survival time, higher = longer survival
Summary of the method: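 Tumor was transplanted into mice, which were then dosed with test compound or vehicle alone. Survival was recorded for each group, and the treated figure was expressed relative to the control figure.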

[1] = dose: 25.0 mg/kg/injection, schedule: Q01DX009 (ip), vehicle: saline
[2] = dose: 50.0 mg/kg/injection, schedule: Q01DX009 (ip), vehicle: saline
[3] = dose: 50.0 mg/kg/injection, schedule: Q04DX003 (ip), vehicle: saline
[4] = dose: 100.0 mg/kg/injection, schedule: Q01DX009 (ip), vehicle: saline
[5] = dose: 100.0 mg/kg/injection, schedule: Q04DX003 (ip), vehicle: saline
[6] = dose: 100.0 mg/kg/injection, schedule: Q01DX001 (ip), vehicle: carboxymethylcellulose (CMC)
[7] = dose: 200.0 mg/kg/injection, schedule: Q01DX001 (ip), vehicle: carboxymethylcellulose (CMC)
[8] = dose: 400.0 mg/kg/injection, schedule: Q01DX001 (ip), vehicle: carboxymethylcellulose (CMC)
[9] = dose: 100.0 mg/kg/injection, schedule: Q04DX002 (ip), vehicle: saline with Tween-80
[10] = dose: 100.0 mg/kg/injection, schedule: Q04DX003 (ip), vehicle: saline with Tween-80
[11] = dose: 200.0 mg/kg/injection, schedule: Q04DX003 (ip), vehicle: saline with Tween-80
[12] = dose: 400.0 mg/kg/injection, schedule: Q04DX002 (ip), vehicle: saline with Tween-80
[13] = dose: 100.0 mg/kg/injection, schedule: Q04DX003 (ip), vehicle: Klucel (hydroxypropylcellulose) (HPC)
[14] = dose: 200.0 mg/kg/injection, schedule: Q04DX003 (ip), vehicle: Klucel (hydroxypropylcellulose) (HPC)
[15] = dose: 400.0 mg/kg/injection, schedule: Q04DX003 (ip), vehicle: Klucel (hydroxypropylcellulose) (HPC)
[16] = dose: 100.0 mg/kg/injection, schedule: Q01DX009 (ip), vehicle: Klucel (hydroxypropylcellulose) (HPC)
[17] = dose: 200.0 mg/kg/injection, schedule: Q01DX009 (ip), vehicle: Klucel (hydroxypropylcellulose) (HPC)
[18] = dose: 400.0 mg/kg/injection, schedule: Q01DX009 (ip), vehicle: Klucel (hydroxypropylcellulose) (HPC)
[19] = dose: 200.0 mg/kg/injection, schedule: Q01DX009 (ip), vehicle: saline
[20] = dose: 200.0 mg/kg/injection, schedule: Q04DX003 (ip), vehicle: saline
[21] = dose: 400.0 mg/kg/injection, schedule: Q04DX003 (ip), vehicle: saline
[22] = dose: 50.0 mg/kg/injection, schedule: Q01DX001 (ip), vehicle: carboxymethylcellulose (CMC)
[23] = dose: 100.0 mg/kg/injection, schedule: Q01DX001 (ip), vehicle: saline
[24] = dose: 200.0 mg/kg/injection, schedule: Q01DX001 (ip), vehicle: saline
[25] = dose: 400.0 mg/kg/injection, schedule: Q01DX001 (ip), vehicle: saline
[26] = dose: 100.0 mg/kg/injection, schedule: Q01DX001 (ip), vehicle: Klucel (hydroxypropylcellulose) (HPC)
[27] = dose: 75.0 mg/kg/injection, schedule: Q01DX001 (ip), vehicle: saline
[28] = dose: 150.0 mg/kg/injection, schedule: Q01DX001 (ip), vehicle: saline

Measured: T/C

CCN(CC)CCOc1cc(C)ccc1C
inactive: [1] 98 % of control | [2] 93 % of control | [3] 100 % of control | [4] 95 % of control | [5] 98 % of control

CCCCNC(c1ccc(C[N+]2(C)CCCC2)cc1)C(Cl)(Cl)Cl (stereo unspecified)
inactive: dose: 10.0 mg/kg/injection, schedule: Q01DX001 (ip), vehicle: saline 95 % of control | dose: 20.0 mg/kg/injection, schedule: Q01DX001 (ip), vehicle: saline 95 % of control

O=[N+]([O-])c1cccc(-n2cccc2)c1
inactive: dose: 100.0 mg/kg/injection, schedule: Q01DX001 (ip), vehicle: steriod suspending solution 101 % of control | dose: 200.0 mg/kg/injection, schedule: Q01DX001 (ip), vehicle: steriod suspending solution 103 % of control | dose: 400.0 mg/kg/injection, schedule: Q01DX001 (ip), vehicle: steriod suspending solution 97 % of control

O=c1[nH]nc(S(=O)(=O)N2CCOCC2)c(=O)[nH]1
inactive: [6] 98 % of control | [7] 96 % of control | [8] 96 % of control

O=C(NC(=S)Nc1ccc(Br)cc1)c1ccc(Cl)cc1Cl
inactive: dose: 100.0 mg/kg/injection, schedule: Q01DX001 (ip), vehicle: saline with Tween-80 92 % of control | dose: 100.0 mg/kg/injection, schedule: Q01DX009 (ip), vehicle: saline with Tween-80 97 % of control and 102 % of control | [9] 95 % of control and 90 % of control | [10] 95 % of control | dose: 200.0 mg/kg/injection, schedule: Q01DX001 (ip), vehicle: saline with Tween-80 90 % of control | dose: 200.0 mg/kg/injection, schedule: Q01DX009 (ip), vehicle: saline with Tween-80 97 % of control and 88 % of control | dose: 200.0 mg/kg/injection, schedule: Q04DX002 (ip), vehicle: saline with Tween-80 93 % of control and 101 % of control | [11] 98 % of control | dose: 400.0 mg/kg/injection, schedule: Q01DX001 (ip), vehicle: saline with Tween-80 97 % of control | dose: 400.0 mg/kg/injection, schedule: Q01DX009 (ip), vehicle: saline with Tween-80 97 % of control and 90 % of control | [12] 90 % of control and 92 % of control | dose: 400.0 mg/kg/injection, schedule: Q04DX003 (ip), vehicle: saline with Tween-80 93 % of control

CCOC(=O)c1ccc(C)cc1Nc1ccccc1C(F)(F)F
inactive: [13] 90 % of control | [14] 94 % of control | [15] 95 % of control

COc1ccc(OC)c(NC(=O)Nc2cc([N+](=O)[O-])ccc2OC)c1
inactive: dose: 50.0 mg/kg/injection, schedule: Q01DX009 (ip), vehicle: Klucel (hydroxypropylcellulose) (HPC) 101 % of control | [16] 97 % of control | [17] 111 % of control

COc1cc(CC2c3cc(OC)c(OC)cc3CCN2C)c(Oc2cc3c(cc2OC)-c2c(OC)c(OC)c(OC)c4c2C(C3)N(C)CC4)cc1OC (stereo unspecified)
inactive: [10] 97 % of control | [11] 97 % of control

COc1ccc(OC(=O)Nc2ccc(Cl)c(Cl)c2)cc1
inactive: [16] 102 % of control | [13] 95 % of control | [17] 106 % of control | [14] 95 % of control | [18] 95 % of control | [15] 102 % of control

COc1cccc(CC(N)=O)c1OC
inactive: [4] 97 % of control | [5] 95 % of control | [19] 90 % of control | [20] 92 % of control | [21] 97 % of control

CCOCCOCCCNCC(=O)N1CCN(C(=O)CNCCCOCCOCC)CC1
inactive: [22] 97 % of control | [6] 98 % of control | [7] 108 % of control | [8] 103 % of control

O=C1CCC2OC(=O)C3CCCC1C23 (stereo unspecified)
inactive: [23] 103 % of control | [24] 97 % of control | [25] 101 % of control

Nc1ccc(N)cc1 (tested in a mixture with another compound)
inactive: dose: 50.0 mg/kg/injection, schedule: Q01DX009 (ip), vehicle: DMSO 103 % of control | dose: 100.0 mg/kg/injection, schedule: Q01DX009 (ip), vehicle: DMSO 91 % of control | dose: 100.0 mg/kg/injection, schedule: Q04DX003 (ip), vehicle: DMSO 91 % of control | dose: 200.0 mg/kg/injection, schedule: Q04DX003 (ip), vehicle: DMSO 94 % of control

COC1CCC2(C)C(C)C(C)CC3OC32C1 (stereo unspecified)
inactive: dose: 50.0 mg/kg/injection, schedule: Q01DX001 (ip), vehicle: saline 95 % of control | [23] 101 % of control | [24] 95 % of control | [25] 104 % of control

O=C(O)CCCCCCCCC(=O)c1cc(O)ccc1O
inactive: [26] 94 % of control | dose: 200.0 mg/kg/injection, schedule: Q01DX001 (ip), vehicle: Klucel (hydroxypropylcellulose) (HPC) 94 % of control | dose: 400.0 mg/kg/injection, schedule: Q01DX001 (ip), vehicle: Klucel (hydroxypropylcellulose) (HPC) 106 % of control

CN(C)[S+](C)(=O)/C=C(/[O-])c1ccccc1 (stereo unspecified)
inactive: dose: 62.5 mg/kg/injection, schedule: Q01DX001 (ip), vehicle: saline 106 % of control | dose: 125.0 mg/kg/injection, schedule: Q01DX001 (ip), vehicle: saline 102 % of control | dose: 250.0 mg/kg/injection, schedule: Q01DX001 (ip), vehicle: saline 102 % of control

O=C(Nc1cc(C(F)(F)F)ccc1Cl)c1ccccc1
inactive: [16] 90 % of control | [5] 117 % of control | [17] 108 % of control | [20] 101 % of control | [18] 111 % of control | [21] 103 % of control

O=C(Oc1ccc([N+](=O)[O-])cc1)c1ccc(C[P+](c2ccccc2)(c2ccccc2)c2ccccc2)cc1
inactive: [4] 98 % of control | [5] 93 % of control | [19] 98 % of control | [20] 90 % of control | dose: 400.0 mg/kg/injection, schedule: Q01DX009 (ip), vehicle: saline 96 % of control | [21] 93 % of control

Cc1ccc(NC(=O)OC/C=C/c2ccccc2)c(Cl)c1
inactive: [16] 99 % of control | [17] 97 % of control

CC(CC1c2ccccc2CCc2ccccc21)CN(C)C (stereo unspecified)
inactive: dose: 6.25 mg/kg/injection, schedule: Q01DX009 (ip), vehicle: saline 95 % of control | dose: 12.5 mg/kg/injection, schedule: Q01DX009 (ip), vehicle: saline 104 % of control | [1] 95 % of control | dose: 25.0 mg/kg/injection, schedule: Q04DX003 (ip), vehicle: saline 102 % of control | [2] 101 % of control | [3] 107 % of control | [5] 120 % of control

CSC(C#N)S(C)(=O)=O (stereo unspecified)
inactive: dose: 25.0 mg/kg/injection, schedule: Q01DX001 (ip), vehicle: Klucel (hydroxypropylcellulose) (HPC) 109 % of control | dose: 50.0 mg/kg/injection, schedule: Q01DX001 (ip), vehicle: Klucel (hydroxypropylcellulose) (HPC) 100 % of control | [26] 103 % of control and 108 % of control

O=C(O)c1c(O)cc(=O)oc1-c1ccccc1Cl
inactive: [27] 97 % of control | [28] 101 % of control | dose: 300.0 mg/kg/injection, schedule: Q01DX001 (ip), vehicle: saline 96 % of control

CCOCCOC(=O)c1ccc(C(=N)OCC)cc1
inactive: [23] 90 % of control | [24] 90 % of control | [25] 86 % of control

COc1cc(C=O)ccc1OC(=O)Nc1cccc(C(C)=O)c1
inactive: [16] 96 % of control | [17] 92 % of control

CCCCCCCC[As](C)(=O)O
inactive: dose: 6.25 mg/kg/injection, schedule: Q01DX009 (ip), vehicle: saline with Tween-80 89 % of control

O/N=C(\c1ccccc1)C1C(/C(=N/O)c2ccccc2)C1c1ccccc1 (stereo unspecified)
inactive: [9] 88 % of control | [12] 88 % of control

CC(COC(=O)c1ccc(N)cc1)NC1CCCC1 (stereo unspecified)
inactive: [27] 97 % of control | [28] 105 % of control

S=C(N/N=C\c1ccc(Cl)cc1Cl)Nc1ccc2cn[nH]c2c1
inactive: [22] 102 % of control | [6] 98 % of control | [7] 86 % of control | [8] 91 % of control
